Test results published in patent publication US7943601B2, “2-methylene-20-methyl-19,24,25,26,27-pentanor-vitamin D analogs” (Wisconsin Alumni Research Foundation, priority 2007, dated 2011).
Like-named read-outs stand apart in the source and are kept apart here.

Experiments:
HL-60 cells = assay: HL-60 differentiation (nitro blue tetrazolium reduction); assay type: cell-based, human; conditions: four days, read-out: EC50, HL-60 cell differentiation
Description: The study drugs were dissolved in ethanol and the concentrations determined using UV spectrophotometry. Serial dilutions were prepared so that a range of drug concentrations could be tested without changing the final concentration of ethanol (≦0.2%) present in the cell cultures.
Human promyelocytic leukemia (HL60) cells were grown in RPMI-1640 medium containing 10% fetal bovine serum. The cells were incubated at 37° C. in the presence of 5% CO2.
HL60 cells were plated at 1.2×10^5 cells/ml. Eighteen hours after plating, cells in duplicate were treated with drug. Four days later, the cells were harvested and a nitro blue tetrazolium reduction assay was performed (Collins et al., 1979; J. Exp. Med. 149:969-974). The percentage of differentiated cells was determined by counting a total of 200 cells and recording the number that contained intracellular black-blue formazan deposits. Verification of differentiation to monocytic cells was determined by measuring phagocytic activity (data not shown).

[1] = test system: 24-hydroxylase (24Ohase) gene promoter; assay: In vitro transcription assay, luciferase reporter in ROS 17/2.8 (bone) cells; assay type: cell-based; conditions: ROS 17/2.8 cells, sixteen hours after dosing; read-out: EC50, transcriptional activity in bone cells (24-hydroxylase gene)
Description: Transcription activity was measured in ROS 17/2.8 (bone) cells that were stably transfected with a 24-hydroxylase (24Ohase) gene promoter upstream of a luciferase reporter gene (Arbour et al., 1998). Cells were given a range of doses. Sixteen hours after dosing the cells were harvested and luciferase activities were measured using a luminometer.
RLU=relative luciferase units.

vitamin D-deficient rats [2] = assay: Bone calcium mobilization (serum calcium); assay type: in vivo, rat; conditions: rats on low calcium diet (0.02%); for bone calcium mobilization (serum calcium levels): all dose levels tested, four ip doses
Description: (§1) Male, weanling Sprague-Dawley rats were placed on Diet 11 (0.47% Ca) diet+AEK oil for one week followed by Diet 11 (0.02% Ca)+AEK oil for 3 weeks. The rats were then switched to a diet containing 0.47% Ca for one week followed by two weeks on a diet containing 0.02% Ca. Dose administration began during the last week on 0.02% calcium diet. Four consecutive ip doses were given approximately 24 hours apart. Twenty-four hours after the last dose, blood was collected from the severed neck and the concentration of serum calcium determined as a measure of bone calcium mobilization. The first 10 cm of the intestine was also collected for intestinal calcium transport analysis using the everted gut sac method.

vitamin D-deficient rats [3] = assay: Intestinal calcium transport (everted gut sac method); assay type: in vivo, rat
Description: as §1

[4] = molecular target: T1, full-length recombinant rat vitamin D receptor (Rattus norvegicus, UniProt P13053); assay: Vitamin D receptor binding, competition with [3H]-1,25(OH)2D3
T1 construct: Full-length recombinant rat receptor was expressed in E. coli; histidine tag (C); made in house; host or cells: E. coli BL21 (DE3) Codon Plus RIL
T1 sequence (P13053 1-423): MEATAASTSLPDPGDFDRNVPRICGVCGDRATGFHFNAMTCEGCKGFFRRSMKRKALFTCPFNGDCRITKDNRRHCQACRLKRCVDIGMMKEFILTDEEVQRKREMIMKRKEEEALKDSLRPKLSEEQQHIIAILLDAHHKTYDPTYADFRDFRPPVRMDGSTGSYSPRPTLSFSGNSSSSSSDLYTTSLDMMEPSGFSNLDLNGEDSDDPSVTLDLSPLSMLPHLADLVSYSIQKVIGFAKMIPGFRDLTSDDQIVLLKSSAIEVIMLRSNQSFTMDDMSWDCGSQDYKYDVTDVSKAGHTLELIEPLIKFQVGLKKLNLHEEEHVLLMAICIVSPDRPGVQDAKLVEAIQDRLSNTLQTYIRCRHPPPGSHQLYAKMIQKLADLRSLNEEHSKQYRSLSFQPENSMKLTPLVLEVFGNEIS
Description: Full-length recombinant rat receptor was expressed in E. coli BL21 (DE3) Codon Plus RIL cells and purified to homogeneity using two different column chromatography systems. The first system was a nickel affinity resin that utilizes the C-terminal histidine tag on this protein. The protein that was eluted from this resin was further purified using ion exchange chromatography (S-Sepharose Fast Flow). Aliquots of the purified protein were quick frozen in liquid nitrogen and stored at −80° C. until use. For use in binding assays, the protein was diluted in TEDK50 (50 mM Tris, 1.5 mM EDTA, pH7.4, 5 mM DTT, 150 mM KCl) with 0.1% Chaps detergent. The receptor protein and ligand concentration were optimized such that no more than 20% of the added radiolabeled ligand was bound to the receptor.
Radiolabeled and unlabeled ligands were added to 100 mcl of the diluted protein at a final ethanol concentration of ≦10%, mixed and incubated overnight on ice to reach binding equilibrium. The following day, 100 mcl of hydroxylapatite slurry (50%) was added to each tube and mixed at 10-minute intervals for 30 minutes. The hydroxylapaptite was collected by centrifugation and then washed three times with Tris-EDTA buffer (50 mM Tris, 1.5 mM EDTA, pH 7.4) containing 0.5% Titron X-100. […] Total binding was determined from the tubes containing only radiolabeled ligand.

[5] = 260 pmol/day ip for 4 consecutive days, everted gut sac

Row | SMILES | EC50 (HL-60 cells) | EC50 [1] | bone calcium mobilization (serum calcium levels) (vitamin D-deficient rats [2]) | intestinal calcium transport (vitamin D-deficient rats [3]; [5]) | affinity for the vitamin D receptor relative to 1,25(OH)2D3 ([4]; compared to 1,25(OH)2D3) | Ki ([4]; full-length recombinant rat vitamin D receptor, read-out: Ki, competition with [3H]-1,25(OH)2D3 for binding to VDR) | EC50 (HL-60 cells; Homo sapiens, 96 h) | bone calcium mobilization (vitamin D-deficient rats [2]; 260 pmol/day ip for 4 consecutive days) | bone calcium mobilization (vitamin D-deficient rats [2]; 7020 pmol/day ip for 4 consecutive days) | intestinal calcium transport (vitamin D-deficient rats [3]; 7020 pmol/day ip for 4 consecutive days, everted gut sac) | intestinal calcium transport (vitamin D-deficient rats [3]; four consecutive ip doses, doses tested, compared to 1,25(OH)2D3)
1 | C=C1/C(=C\C=C2/CCC[C@]3(C)[C@@H]([C@H](C)CCCC(C)(C)O)CC[C@@H]23)C[C@@H](O)C[C@@H]1O [1,25(OH)2D3, 1α,25-dihydroxyvitamin D3, reference compound] | 4 nM | 0.2 nM | increased serum calcium levels at all dosages | promotes a significant increase | – | – | – | – | – | – | –
2 | C=C1[C@H](O)CC(=C/C=C2\CCC[C@]3(C)[C@@H](C(C)(C)CC)CC[C@@H]23)C[C@H]1O [20DCM, 2-methylene-20-methyl-1α-hydroxy-19,24,25,26,27-pentanor-vitamin D3] | – | 4 nM | does not have any measurable activity | promotes intestinal calcium transport only slightly | approximately one-half log less affinity | 0.08 nM | 10 nM | did not result in mobilization of bone calcium | without effect | no significant intestinal calcium transport activity | very little activity
